Measurements: patent publication US20160169914A1, “KINETICS BIOMARKERS FOR NEURODEGENERATION” (KineMed, Inc., priority 2014, published 2016)

How the values were obtained:
[1] = Tolerability of high body water enrichments of 2H2O; type: in vivo, human; conditions: 1-10% of total body water labeled, maintained for weeks or months; humans (>100 persons) and experimental animals
Excerpt: Relatively high body water enrichments of ^2H2O (e.g., 1-10% of the total body water is labeled) may be achieved relatively inexpensively using the techniques of the invention. […] This finding in a large number of human subjects (>100 persons) is contrary to previous concerns about vestibular toxicities at high doses of ^2H2O. One of the Applicants has discovered that as long as rapid changes in body water enrichment are prevented (e.g., by initial administration in small, divided doses), high body water enrichments of ^2H2O can be maintained with no toxicities. For example, the low expense of commercially available ^2H2O allows long-term maintenance of enrichments in the 1-5% range at relatively low expense (e.g., calculations reveal a lower cost for 2 months labeling at 2% ^2H2O enrichment, and thus 7-8% enrichment in the alanine precursor pool, than for 12 hours labeling of ^2H-leucine at 10% free leucine enrichment, and thus 7-8% enrichment in leucine precursor pool for that period).

[2] = system: BDNF (brain-derived neurotrophic factor) transport rate; conditions: PD patients
Experimental: Statistical significance was assessed by 1-way ANOVA with Tukey post-hoc testing. A P value less than 0.05 was considered statistically significant (* P<0.05). […] Solid lines indicate regression; dashed lines indicate 95% confidence intervals. The statistical test that generated both the r^2 and P values was a linear regression (mean±SD were generated by technical replicates of repeated sample preparations and analyses).
The study group consisted of symptomatic PD patients, all on standard anti-PD medications, and 6 non-PD volunteers. […] Unified PD Rating Scale, PART III, and Hoehn and Yahr scores were obtained for each subject. […] Compliance to the experimental protocol was monitored by the clinical staff through collection of blood plasma samples for body water enrichment. […]
Purified cargo proteins were hydrolyzed by treatment with 6N HCl for 16 hours at 110° C. Protein derived amino acids were derivatized to pentafluorobenzyl derivatives, and ^2H incorporation in alanine released from total vesicular proteins was measured by GC/MS, as described elsewhere (Busch R, et al., Biochim Biophys Acta., 1760(5):730-44 (2006)). ^2H enrichment was calculated as the percent increase over the natural abundance of alanine derivative present as the (M+1) mass isotopomer (EM1) (Busch R, et al., Biochim Biophys Acta., 1760(5):730-44 (2006)). […]

[3] = cited from earlier work
[4] = system: ALS; conditions: approved by the FDA in 1995; cited from earlier work

## [2H]O[2H] [^2H2O]
[1]
  toxicity at high body water enrichment: without any evidence of toxicity

## C#CCN[C@@H]1CCc2ccccc21 [rasagiline]
[2]; rasagiline 1 mg/day, 1-way ANOVA with Tukey post-hoc, * P<0.05, FIG. 7 panel A
  deficits in transport rates of BDNF in CSF, compared to patients not treated with Azilect: reduced deficits in transport rates of BDNF
[2]; duration of treatment in years prior to LP, linear regression, FIG. 7 panel B
  correlation between reduced delays in rates of BDNF transport and duration of treatment: strong correlation

## COc1ccc2c(c1OC)C(=O)O[C@@H]2[C@H]1c2c(cc3c(c2OC)OCO3)CCN1C [Noscapine]
[3]; CNS tissue (brain and spinal cord) and PNS
  half-life in CNS tissue: long half-life
[3]; in vivo
  blood brain barrier penetration: penetrates the blood brain barrier

## Nc1nc2ccc(OC(F)(F)F)cc2s1 [Riluzole]
[4]
  disease progression: only delays disease progression modestly
